Results: ChEMBL document CHEMBL1201862, “PubChem BioAssay data set” (2004)
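Values below derive from 48-hour exposures of cells grown in 96-well plates, with endpoints linearly interpolated between the two concentrations bracketing the appropriate inhibition level. GI50 marks 50% less growth.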 Activity calls are given as the source filed them. Rule as the data show it: active = GI50 up to about 1.1 µM and inactive = higher.

Experiments:
Assay in all cases: growth of human tumour cells (NCI), 48 h
HOP-62 = tested on: HOP-62
SF-539 = tested on: SF-539
OVCAR-4 = tested on: OVCAR-4
MDA-MB-231 = tested on: MDA-MB-231
HOP-92 = tested on: HOP-92
NCI-H522 = tested on: NCI-H522
SK-OV-3 = tested on: SK-OV-3
HL-60 = tested on: HL-60
M14 = tested on: M14
HT-29 = tested on: HT-29
RXF 393 = tested on: RXF 393
NCI-H460 = tested on: NCI-H460
OVCAR-8 = tested on: OVCAR-8
HCT-116 = tested on: HCT-116
PC-3 = tested on: PC-3
T47D = tested on: T47D
MOLT-4 = tested on: MOLT-4
HCC 2998 = tested on: HCC 2998
K562 = tested on: K562
SR = tested on: SR

Compound | GI50 (HOP-62) | GI50 (SF-539) | GI50 (OVCAR-4) | GI50 (MDA-MB-231) | GI50 (HOP-92) | GI50 (NCI-H522) | GI50 (SK-OV-3) | GI50 (HL-60) | GI50 (M14) | GI50 (HT-29) | GI50 (RXF 393) | GI50 (NCI-H460) | GI50 (OVCAR-8) | GI50 (HCT-116) | GI50 (PC-3) | GI50 (T47D) | GI50 (MOLT-4) | GI50 (HCC 2998) | GI50 (K562) | GI50 (SR)
COc1ccc2oc3c(C)cc4c(OC)nnc(OC)c4c3c2c1 | 17.7 µM (inactive) | 7.89 µM (inactive) | 34.6 µM (inactive) | 22.9 µM (inactive) | 10.9 µM (inactive) | 6.76 µM (inactive) | > 100 µM (inactive) | 13.5 µM (inactive) | 16.5 µM (inactive) | 4.57 µM (inactive) | 58.1 µM (inactive) | 3.79 µM (inactive) | 6.65 µM (inactive) | 2.17 µM (inactive) | 12.8 µM (inactive) | 29.9 µM (inactive) | 2.81 µM (inactive) | 16.7 µM (inactive) | 6.87 µM (inactive) | 
C=C(C(=O)OC)[C@H]1CC/C(C)=C/CC/C(C)=C/CC[C@@]2(C)O[C@@H]2C1 | 20.7 µM (inactive) | 17.9 µM (inactive) | 26.8 µM (inactive) | 15.9 µM (inactive) | 16.4 µM (inactive) | 18.2 µM (inactive) | 43.7 µM (inactive) | 13 µM (inactive) | 21.9 µM (inactive) | 17.3 µM (inactive) | 14.9 µM (inactive) |  | 13.8 µM (inactive) | 15.4 µM (inactive) | 18 µM (inactive) | 16.3 µM (inactive) | 15.8 µM (inactive) | 16 µM (inactive) | 11.9 µM (inactive) | 
C=C(C)[C@@H]1CC[C@]2(CO)CC[C@]3(C)[C@H](CC[C@@H]4[C@@]5(C)CC[C@H](O)C(C)(C)[C@@H]5CC[C@]43C)[C@@H]12 [BETULIN] | 16.7 µM (inactive) | 11.7 µM (inactive) |  | 33.3 µM (inactive) | 16.7 µM (inactive) | 20.4 µM (inactive) |  | 34 µM (inactive) | 51.1 µM (inactive) | 20.6 µM (inactive) | 10.3 µM (inactive) | 19.3 µM (inactive) | 12.5 µM (inactive) | 30.8 µM (inactive) | 30.2 µM (inactive) | 61.4 µM (inactive) | 32.4 µM (inactive) |  | 15.8 µM (inactive) | 43 µM (inactive)
Cc1[nH]n(-c2nc(O)c(-c3ccccc3)c(=O)[nH]2)c(=O)c1CCO |  | > 100 µM (inactive) | > 100 µM (inactive) | > 100 µM (inactive) | > 100 µM (inactive) | > 100 µM (inactive) | > 100 µM (inactive) | > 100 µM (inactive) | > 100 µM (inactive) | > 100 µM (inactive) | > 100 µM (inactive) | > 100 µM (inactive) | > 100 µM (inactive) | > 100 µM (inactive) | > 100 µM (inactive) | > 100 µM (inactive) | > 100 µM (inactive) |  | > 100 µM (inactive) | > 100 µM (inactive)
COc1cc(/C=C2\CC/C(=C\c3cc(OC)c(O)c(OC)c3)C2=O)cc(OC)c1O | 3.13 µM (inactive) | 3.61 µM (inactive) | 1.69 µM (inactive) | 2.14 µM (inactive) |  | 0.798 µM (active) | 3.81 µM (inactive) | 1.51 µM (inactive) | 2.19 µM (inactive) | 10.4 µM (inactive) | 1.72 µM (inactive) | 1.89 µM (inactive) | 3.01 µM (inactive) | 1.83 µM (inactive) | 2.62 µM (inactive) | 2.32 µM (inactive) | 1.02 µM (active) | 1.67 µM (inactive) | 2.76 µM (inactive) | 2.88 µM (inactive)
C=CCOC(=O)Cn1ccc(=O)[nH]c1=O | > 100 µM (inactive) | > 100 µM (inactive) |  | > 100 µM (inactive) |  |  | > 100 µM (inactive) | > 100 µM (inactive) | > 100 µM (inactive) | > 100 µM (inactive) |  | > 100 µM (inactive) | > 100 µM (inactive) | > 100 µM (inactive) | > 100 µM (inactive) | > 100 µM (inactive) | > 100 µM (inactive) | > 100 µM (inactive) | > 100 µM (inactive) | > 100 µM (inactive)
COC(=O)CCN1CCN(CCO)CC1C (centres undefined) | > 10 µM (inactive) | > 10 µM (inactive) | > 10 µM (inactive) | > 10 µM (inactive) |  | > 10 µM (inactive) | > 10 µM (inactive) | > 10 µM (inactive) | > 10 µM (inactive) | > 10 µM (inactive) | > 10 µM (inactive) | > 10 µM (inactive) | > 10 µM (inactive) | > 10 µM (inactive) | > 10 µM (inactive) | > 10 µM (inactive) | > 10 µM (inactive) | > 10 µM (inactive) | > 10 µM (inactive) | > 10 µM (inactive)
O=C(O)C1CCN(Cc2oc(CO)cc(=O)c2O)C1 (centres undefined) | > 100 µM (inactive) |  | > 100 µM (inactive) | > 100 µM (inactive) | > 100 µM (inactive) | > 100 µM (inactive) | > 100 µM (inactive) | > 100 µM (inactive) | > 100 µM (inactive) | > 100 µM (inactive) | > 100 µM (inactive) | > 100 µM (inactive) | > 100 µM (inactive) | > 100 µM (inactive) | > 100 µM (inactive) | > 100 µM (inactive) | > 100 µM (inactive) |  | > 100 µM (inactive) | > 100 µM (inactive)
CC(C)CC(NC=O)C(=O)NC(Cc1ccccc1)NC(=O)CNC(=O)C(C)NC(=O)C(N)Cc1ccc(O)cc1 (centres undefined) | > 100 µM (inactive) | > 100 µM (inactive) | 91.8 µM (inactive) | > 100 µM (inactive) | > 100 µM (inactive) | > 100 µM (inactive) | > 100 µM (inactive) | > 100 µM (inactive) | > 100 µM (inactive) | > 100 µM (inactive) | > 100 µM (inactive) | > 100 µM (inactive) | > 100 µM (inactive) | > 100 µM (inactive) | > 100 µM (inactive) | > 100 µM (inactive) | > 100 µM (inactive) |  | > 100 µM (inactive) | > 100 µM (inactive)
COc1ccc([N+](=O)[O-])c2c(NCCCN(C)C)ccnc12 | 3.66 µM (inactive) | 4.6 µM (inactive) | 1.51 µM (inactive) | 8.3 µM (inactive) | 1.78 µM (inactive) | 1.46 µM (inactive) | 11.2 µM (inactive) | 5.14 µM (inactive) | 6.52 µM (inactive) | 3.66 µM (inactive) | 2.31 µM (inactive) | 2.34 µM (inactive) | 10.8 µM (inactive) | 3.77 µM (inactive) | 4.32 µM (inactive) | 3.52 µM (inactive) | 1.8 µM (inactive) | 2.84 µM (inactive) | 1.77 µM (inactive) | 
Cc1cc(C)c(-c2no/c(=N\S(=O)(=O)c3ccc(Cl)cc3)o2)c(C)c1 | > 100 µM (inactive) | > 100 µM (inactive) | > 100 µM (inactive) | > 100 µM (inactive) |  | 28.6 µM (inactive) | > 100 µM (inactive) | 42.1 µM (inactive) | > 100 µM (inactive) | > 100 µM (inactive) | > 100 µM (inactive) | > 100 µM (inactive) | > 100 µM (inactive) | 51.1 µM (inactive) | > 100 µM (inactive) | 93.3 µM (inactive) | > 100 µM (inactive) | > 100 µM (inactive) | 49.5 µM (inactive) | 24.7 µM (inactive)
O=C(O)CCC(c1ccccc1)(c1ccccc1)c1ccccc1 | 34.8 µM (inactive) | 33.3 µM (inactive) | 34.5 µM (inactive) | 43.6 µM (inactive) | 13.8 µM (inactive) |  | 31.9 µM (inactive) | 37.2 µM (inactive) | 33 µM (inactive) | 36.1 µM (inactive) |  | 25.2 µM (inactive) | 30.3 µM (inactive) |  | 33 µM (inactive) | 0.647 µM (active) | 33.9 µM (inactive) | 32.4 µM (inactive) | 37.7 µM (inactive) | 31.6 µM (inactive)
CCCCCCCCCCCCCCCCCCOc1ccc(/C=C/C2=[N+](CCCl)CCO2)cc1 | > 100 µM (inactive) | > 100 µM (inactive) | > 100 µM (inactive) | 41 µM (inactive) | > 100 µM (inactive) | 0.796 µM (active) | > 100 µM (inactive) | 53.3 µM (inactive) | > 100 µM (inactive) | > 100 µM (inactive) |  | > 100 µM (inactive) | > 100 µM (inactive) | > 100 µM (inactive) | > 100 µM (inactive) | > 100 µM (inactive) | > 100 µM (inactive) |  | > 100 µM (inactive) | 30.9 µM (inactive)
COc1cc(C2c3c(ccc4ccccc34)C(=O)C3CCC(=O)N32)cc(OC)c1OC (centres undefined) | > 50 µM (inactive) | > 50 µM (inactive) | > 50 µM (inactive) | > 50 µM (inactive) | > 50 µM (inactive) | 25.5 µM (inactive) | > 50 µM (inactive) | > 50 µM (inactive) | > 50 µM (inactive) | > 50 µM (inactive) | > 50 µM (inactive) | > 50 µM (inactive) | > 50 µM (inactive) | > 50 µM (inactive) | > 50 µM (inactive) | > 50 µM (inactive) | > 50 µM (inactive) |  | > 50 µM (inactive) | 48.4 µM (inactive)
Cc1c2cccc-2ccc2c1[nH]c1ccccc12 | 3.49 µM (inactive) | 1.81 µM (inactive) | 2.23 µM (inactive) | 1.76 µM (inactive) | 2.83 µM (inactive) | 1.93 µM (inactive) | 3.23 µM (inactive) | 3.1 µM (inactive) | 1.73 µM (inactive) | 3.78 µM (inactive) | 3.21 µM (inactive) | 1.85 µM (inactive) | 2.54 µM (inactive) | 2.12 µM (inactive) | 1.76 µM (inactive) | 2.54 µM (inactive) | 3.57 µM (inactive) |  | 2.94 µM (inactive) | 3.05 µM (inactive)
